Data set [1] concerns the target T1, reduced folate carrier (RFC) (Homo sapiens, UniProt P41440).
T1 construct: endogenous in cells; host or cells: CCRF-CEM human T-cell leukemia cells
T1 sequence (P41440 1-591): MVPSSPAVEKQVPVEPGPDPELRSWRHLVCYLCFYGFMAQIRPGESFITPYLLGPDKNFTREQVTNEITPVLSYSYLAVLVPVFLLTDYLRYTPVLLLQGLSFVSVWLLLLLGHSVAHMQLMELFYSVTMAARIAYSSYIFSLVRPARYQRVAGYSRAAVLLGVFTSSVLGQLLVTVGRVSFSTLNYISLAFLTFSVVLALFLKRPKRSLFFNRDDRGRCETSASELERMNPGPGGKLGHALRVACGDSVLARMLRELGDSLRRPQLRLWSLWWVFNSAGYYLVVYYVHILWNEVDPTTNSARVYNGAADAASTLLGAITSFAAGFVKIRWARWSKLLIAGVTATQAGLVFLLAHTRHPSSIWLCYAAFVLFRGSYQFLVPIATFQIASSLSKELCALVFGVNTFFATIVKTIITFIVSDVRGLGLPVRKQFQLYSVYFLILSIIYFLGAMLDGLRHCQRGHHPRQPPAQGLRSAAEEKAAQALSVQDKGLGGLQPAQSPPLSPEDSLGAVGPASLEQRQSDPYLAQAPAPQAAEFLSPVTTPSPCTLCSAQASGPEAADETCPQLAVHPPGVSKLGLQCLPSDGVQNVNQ
Kind of data set: [3H]MTX transport inhibition in intact CCRF-CEM human T-cell leukemia cells. It is filed as cell-based. Conditions: 2 μM [3H]MTX, 37°, 5 min uptake. On the procedure:
Transport of 2 μM [^3H]MTX (methotrexate) at 37° by intact CCRF-CEM human T-cell leukemia was assayed by a micro-method utilizing repeated iced saline washes to remove extracellular drug. Such method is disclosed in McGuire J J, et al., Cancer Res 1989; 49:4517-25 and McGuire J J, et al., Cancer Res 2006; 66:3836-44, both of which are incorporated herein by reference in their entirety. The washed cell pellets were solubilized in 1 ml of 0.3% Triton X-100 at 37° C. for 1 hour before transfer to scintillation vials; 10 ml Ecoscint liquid scintillation fluid (National Diagnostics, Atlanta, Ga.) was added and radioactivity was quantitated in a Beckman LS6500 scintillation counter. […] Uptake was initiated by addition of 200 μL of cells at ≈2.5×10^7 cells/ml and 2 aliquots (100 μL) were removed to iced saline and processed at 5 min. Adventitious [^3H]MTX binding was determined at 0° C. by adding 200 μl of cells to 25 μl of PBS in a tube and cooling to 0° C. in ice for ≧5 min; following addition of 25 μl of [^3H]MTX to achieve a final concentration of 2 μM, 2 aliquots (100 μL) were immediately removed to iced saline and processed.
Analytical HPLC was performed on a Rainin Instruments HPLC system using the Dynamax controller and data capture module run on a Macintosh computer, such as described in McGuire J J, et al., J Biol Chem 1990; 265:14073-9, which is incorporated herein by reference in its entirety. C18 reversed-phase (0.4×25 cm; Rainin Microsorb, 5μ) HPLC was performed at 25° C. Detection was by absorbance at 280 and/or 254 nm. For MTX (tr, ≈31.6 min) and 7-OH-MTX (tr, ≈35.2 min) the gradient was from 4-13% ACN in 0.1 M Na-acetate, pH 5.5 over 41 min at 1 ml/min.

Data set [2] is described as follows: Comparative dissolution in 0.1N hydrochloric acid, USP dissolution apparatus with HPLC (FIG. 2, FIG. 3). The class given is physicochemical. On the procedure:
The percent dissolution for both compounds in 0.1N hydrochloric acid as a function of time was evaluated using a standard USP dissolution apparatus and high performance liquid chromatography (HPLC) test equipment. […] This is particularly relevant in the case of pharmaceutical compositions of the invention for oral delivery, wherein the composition will encounter an acidic environment, such as in the stomach. Greater solubility of the sodium salt compound indicates a greater amount of the active compound will be available for absorption.
Such improved solubility is illustrated in FIG. 3, wherein the comparative dissolution of an antifolate compound is given as the percent dissolution as a function of time. The antifolate compound was tested in the diacid form (denoted as “CH-1504 free acid”), in the sodium salt form (denoted as “CH-1504 sodium salt”), and as the sodium salt form in a pharmaceutical composition according to the invention including […]® 44/14 (denoted as “CH-1504 formulation”). Dissolution was tested using 0.1N hydrochloric acid. […] The inventive formulation achieved 90% dissolution by 30 minutes and 100% dissolution by 45 minutes. After 90 minutes, the salt alone and the diacid alone achieved only about 75% dissolution and about 50% dissolution, respectively.

The procedure of data set [3]:
A salt screen of this compound was conducted with various pharmaceutically acceptable counterions to analyze aqueous solubility of the formed salts. Formed solids suspected of forming salts were analyzed by X-ray powder diffraction (XRPD).

Data set [4] is described as follows: Pharmacokinetics of a single oral dose in a healthy subject. To be noted: human, in vivo. On the procedure:
The pharmacokinetic parameters of a single oral dose of the antifolate compound according to the invention were evaluated. In Comparative Examples 2-7, 1 to 20 mg of an antifolate compound according to Formula (9) was administered in the racemic free acid form (i.e., not as part of a pharmaceutical formulation). The drug product was supplied as powder-filled gelatin capsules in three active strengths (1.0 mg, 2.5 mg. and 5.0 mg) with each capsule including enough microcrystalline cellulose to bring the total capsule weight to 288 mg. […] In Examples 2-8, the test material was administered to a healthy subject, and blood samples were taken before dosing and at 0.5, 1, 1.5, 2, 2.5, 3, 3.5, 4, 5, 6, 8, 10, 12, 16, 24, and 48 hours after dosing. The calculated pharmacokinetic values observed are provided below in Table 3.
In Table 3, Cmax is the maximum measured plasma concentration of the antifolate compound administered and tmax is the time to Cmax. […] Thus, the pharmaceutical formulations of the present invention allow for greatly reducing the amount of antifolate compound that is administered to a subject while actually increasing the amount of the compound that is available for therapeutic action.

Data set [5] can be described thus: Comparative dissolution with cyclodextrin formulation (FIG. 4). To be noted: 45 minutes. The class given is physicochemical. The text has this:
Compositions according to the invention using cyclodextrins have also shown similarly beneficial results. The improved solubility of the inventive compositions comprising an antifolate compound and a cyclodextrin is illustrated in FIG. 4, wherein the comparative dissolution of an antifolate compound is again given as a percent dissolution as a function of time. The antifolate compound was again tested in the diacid form (denoted as “Free acid”), in the sodium salt form (denoted as “Disodium salt”), and as the sodium salt form in a pharmaceutical composition according to the invention including a cyclodextrin (denoted as “Cyclodextrin formulation”). […] The inventive formulation approached 100% dissolution within 30 minutes. After 45 minutes, the salt alone and the diacid alone achieved only about 70% dissolution and about 45% dissolution, respectively.

Data set [6] is described as follows: Plasma concentration after oral L- or D-CH-1504 in non-fasted rats (Example 14). The class given is in vivo. Conditions: individual animals; for Plasma conc. of D-CH-1504 / Plasma conc. of L-CH-1504: non-fasted female Lewis rats. On the procedure:
L- or D-CH-1504 was administered once orally to non-fasted female Lewis rats at a dose of 10 mg/kg (vehicle: 0.11% carboxymethylcellulose/0.45% TWEEN 80, formulation: suspension). About 750 μL of blood was collected from the jugular vein at 1 and 3 hours after administration. And then, whole of blood was collected from the femoral vein under diethyl ether anesthesia at 6 hours after administration. The collected blood was immediately centrifuged to obtain a plasma sample. L- and D-CH-1504 were extracted from the plasma by solid-phase extraction and were then determined with a LC/MS/MS.

Data set [7] can be described thus: Hygroscopicity study of salts at 75% relative humidity for five days. It is filed as physicochemical. The text has this: Hygroscopicity and approximate solubility in aqueous and buffered solutions of ammonium, besylate, calcium, esylate, sulfate, HCl, mesylate, napsylate, potassium, disodium, and tosylate salts were compared. In the hygroscopicity study, the salts were subjected to 75% relative humidity for five days.

For another data set, the system named is CCRF-CEM cells. Nature of the data set: Growth inhibition of CCRF-CEM cells by continuous (120 hr) drug exposure. To be noted: continuous 120 hr exposure. The class given is cell-based, human. As to the method:
The human T-lymphoblastic leukemia cell line CCRF-CEM (described in Foley G F, et al., Cancer 1965; 18:522-9) was cultured as described in McCloskey D E, et al., J Biol Chem 1991; 266:6181-7 (both of which are incorporated herein by reference in their entirety) and verified to be negative for Mycoplasma contamination (Mycoplasma Plus PCR primers, Stratagene, La Jolla, Calif.).

Where “and” joins values, the source holds several entries; their conditions need not be identical. Equal entries are not always repeated.

Take `C=C(CC(NC(=O)c1ccc(CCc2ccc3nc(N)nc(N)c3c2)cc1)C(=O)O)C(=O)O` (racemic) [CH-1504, 2-{4-[2-(2,4-diamino-quinazolin-6-yl)-ethyl]-benzoylamino}-4-methylene-pentanedioic acid]: in data set [1], half-maximal inhibition (IC50) was put at 1700 nM. Also, the percent dissolution in data set [2] (FIG. 2, 45 minutes) is 45%; in data set [2] (FIG. 3, 15 minutes), “approximately 35%”; in data set [2] (FIG. 3, 90 minutes), “about 50%”; in data set [5], “about 45%”. Besides, the “solubility (in words)” value in data set [3] is given as “poor solubility”. In addition, the total exposure AUC(0-inf) stood at 1.52 ng·h/mL in data set [4] (1 mg); 9.58 ng·h/mL in data set [4] (5 mg); 7.47 ng·h/mL in data set [4] (7.5 mg); 26 ng·h/mL in data set [4] (10 mg); 25.9 ng·h/mL in data set [4] (15 mg); 35.6 ng·h/mL in data set [4] (20 mg). For the same compound, the AUC(0-t) in data set [4] (1 mg) stood at 1.25 ng·h/mL; in data set [4] (5 mg), 8.92 ng·h/mL; in data set [4] (7.5 mg), 6.63 ng·h/mL; in data set [4] (10 mg), 25.2 ng·h/mL; in data set [4] (15 mg) it was 25 ng·h/mL; in data set [4] (20 mg), 34.6 ng·h/mL. Moreover, the Cmax in data set [4] (1 mg) came out at 0.69 ng/mL; in data set [4] (5 mg), 2.65 ng/mL; in data set [4] (7.5 mg), 2.05 ng/mL; in data set [4] (10 mg), 6 ng/mL; in data set [4] (15 mg), 6.57 ng/mL; in data set [4] (20 mg), 7.83 ng/mL. Moreover, the Tmax in data set [4] (1 mg) was found to be 2.26 h; in data set [4] (5 mg), 1.26 h; in data set [4] (7.5 mg) it was 1.5 h; in data set [4] (10 mg), 2.01 h; in data set [4] (15 mg), 2.25 h; in data set [4] (20 mg), 2.25 h. Also, the half-life in data set [4] (1 mg) is 0.99 h; in data set [4] (5 mg) it was 3.21 h; in data set [4] (7.5 mg), 2.71 h; in data set [4] (10 mg) it was 3.13 h; in data set [4] (15 mg), 3.2 h; in data set [4] (20 mg) it was 3.91 h.

As to `C=C(C[C@H](NC(=O)c1ccc(CCc2ccc3nc(N)nc(N)c3c2)cc1)C(=O)O)C(=O)O` [L-CH-1504, (S)-2-{4-[2-(2,4-diamino-quinazolin-6-yl)-ethyl]-benzoylamino}-4-methylene-pentanedioic acid], in data set [1], half-maximal inhibition (IC50) required 1100 nM. For the same compound, the “Plasma conc. of D-CH-1504” value in data set [6] (1 h after 10 mg/kg oral), in data set [6] (3 h after 10 mg/kg oral) and in data set [6] (6 h after 10 mg/kg oral) was “BLQ (Below limit of quantification (<0.500 ng/mL))” throughout. For the same compound, the “Plasma conc. of L-CH-1504” value in data set [6] (1 h after 10 mg/kg oral) was 139 ng/mL and 118 ng/mL; in data set [6] (3 h after 10 mg/kg oral) it was 36.8 ng/mL and 59.7 ng/mL; in data set [6] (6 h after 10 mg/kg oral), 22.2 ng/mL and 21.7 ng/mL. Moreover, the concentration at 1 h in data set [6] (female, Lewis, rat, plasma, oral, 10 mg/kg, 1 h after 10 mg/kg oral, read-out: Plasma conc. of L-CH-1504) was 144 ng/mL. Also, in data set [6] (female, Lewis, rat, plasma, oral, 10 mg/kg, 3 h after 10 mg/kg oral, read-out: Plasma conc. of L-CH-1504), the concentration at 3 h turned out to be 61.9 ng/mL. The concentration at 6 h in data set [6] (female, Lewis, rat, plasma, oral, 10 mg/kg, 6 h after 10 mg/kg oral, read-out: Plasma conc. of L-CH-1504) was found to be 22.7 ng/mL.

As to `Cc1ccc(S(=O)(=O)O)cc1.Cn1cc(-c2ccc3nnc(C(F)(F)c4ccc5ncccc5c4)n3n2)cn1` [tosylate salt], the hygroscopicity study outcome in data set [7] is “Tacky or gummy solids or solids not exhibiting birefringence and extinction”.

In data set [1], `Nc1nc(N)c2nc(CNc3ccc(C(=O)N[C@@H](CCC(=O)O)C(=O)O)cc3)cnc2n1` [Aminopterin, reference compound] came in with an IC50 of 1500 nM.

`C=C(C[C@@H](NC(=O)c1ccc(CCc2ccc3nc(N)nc(N)c3c2)cc1)C(=O)O)C(=O)O` [D-CH-1504] came in with a concentration for a half-maximal effect (EC50) in the data set on CCRF-CEM cells of 29 nM. The half-maximal inhibitory concentration (IC50) in data set [1] was determined as 7600 nM. Besides, the “Plasma conc. of D-CH-1504” value in data set [6] (1 h after 10 mg/kg oral) was 31.5 ng/mL and 20.5 ng/mL and 11.0 ng/mL; in data set [6] (3 h after 10 mg/kg oral), 14.3 ng/mL and 9.44 ng/mL and 8.93 ng/mL; in data set [6] (6 h after 10 mg/kg oral), 8.34 ng/mL and 13.6 ng/mL and 8.01 ng/mL. Also, the “Plasma conc. of L-CH-1504” value in data set [6] (1 h after 10 mg/kg oral) is 0.895 ng/mL and BLQ (Below limit of quantification (<0.500 ng/mL)) (2×); in data set [6] (3 h after 10 mg/kg oral), “BLQ (Below limit of quantification (<0.500 ng/mL))”; in data set [6] (6 h after 10 mg/kg oral), “BLQ (Below limit of quantification (<0.500 ng/mL))”.

The record behind these values is US20090253720A1, “ANTIFOLATE COMPOSITIONS” (Chelsea Therapeutics, Inc., priority 2008, published 2009).
